# Test results taken from patent publication US10053431B2, “Tetrahydro-benzodiazepinones” (priority 2013, dated 2018).
# Structures can show the parent of a compound that is named as a salt.
# Columns and labels:
# [1] = target: BIR2 domain of XIAP (Homo sapiens (Human), UniProt P98170, C202A/C213G); test: TR-FRET assay for BIR2 (inhibition of binding of XIAP BIR2 domain to SMAC-derived Peptide A); settings: 6x His-tagged BIR2 domain (aa 124-240 of XIAP) 10 nM, Peptide A 20 nM, TR-FRET; read-out: IC50 BIR2
# Sequence of BIR2 domain of XIAP (P98170 124-240 with tags or gaps C202A/C213G limits assumed): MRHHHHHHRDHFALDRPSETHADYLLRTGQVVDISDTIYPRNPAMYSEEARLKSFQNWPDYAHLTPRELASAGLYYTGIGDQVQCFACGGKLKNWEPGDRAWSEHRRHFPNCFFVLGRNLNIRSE
# [2] = target: BIR3 domain of XIAP (Homo sapiens (Human), UniProt P98170); test: TR-FRET assay for BIR3 (inhibition of binding of XIAP BIR3 domain to SMAC-derived Peptide A); settings: 6x His-tagged BIR3 domain (aa 241-356 of XIAP) 10 nM, Peptide A 20 nM, TR-FRET
# Sequence of BIR3 domain of XIAP (P98170 241-356 with tags or gaps limits assumed): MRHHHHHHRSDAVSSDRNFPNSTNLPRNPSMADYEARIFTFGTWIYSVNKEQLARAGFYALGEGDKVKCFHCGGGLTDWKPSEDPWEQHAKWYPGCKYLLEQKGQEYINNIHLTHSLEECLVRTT
SMILES,IC50 [1] [nM],IC50 [2] [nM]
"CN[C@@H](C)C(=O)N[C@H]1CN(C(=O)c2ccc(N)cc2)c2ccccc2N(Cc2c(OCCF)ccc3ccccc23)C1=O [Example 178, (2S)-N-[(3S)-1-(4-aminobenzoyl)-5-[[2-(2-fluoroethoxy)naphthalen-1-yl]methyl]-4-oxo-2,3-dihydro-1,5-benzodiazepin-3-yl]-2-(methylamino)propanamide;hydrochloride]",14.2,16100
"CN[C@@H](C)C(=O)N[C@H]1CN(C(=O)C2CCOCC2)c2cc(C#N)ccc2N(Cc2c(C3CC3)cnc3ccccc23)C1=O [Example 180, (S)-N-((S)-7-cyano-1-((3-cyclopropylquinolin-4-yl)methyl)-2-oxo-5-(telrahydro-2H-pyran-4-carbonyl)-2,3,4,5-tetrahydro-1H-benzo[b][1,4]diazepin-3-yl)-2-(methylamino)propanamide]",18,16500
"CN[C@@H](C)C(=O)N[C@H]1CN(C(C)=O)c2cc(C#N)ccc2N(Cc2c(OC)ccc3c(C#N)cccc23)C1=O [Example 182, (S)-N-((S)-5-acetyl-7-cyano-1-((5-cyano-2-methoxynaphthalen-1-yl)methyl)-2-oxo-2,3,4,5-tetrahydro-1H-benzo[b][1,4]diazepin-3-yl)-2-(methylamino)propanamide]",23.5,32400
"CN[C@@H](C)C(=O)N[C@H]1CN(C(=O)C2CCOCC2)c2cc(C(F)(F)F)ccc2N(Cc2c(C3CC3)cnc3ccccc23)C1=O [Example 184, (S)-N-((S)-1-((3-cyclopropylquinolin-4-yl)methyl)-2-oxo-5-(tetrahydro-2H-pyran-4-carbonyl)-7-(trifluoromethyr)-2,3,4,5-tetrahydro-1H-benzo[b][1,4]diazepin-3-yl)-2-(methylamino)propanamide]",18.3,15200
"CN[C@@H](C)C(=O)N[C@H]1CN(C(=O)CS(C)(=O)=O)c2cc(C(F)(F)F)ccc2N(Cc2c(C3CC3)cnc3ccccc23)C1=O [Example 187, (S)-N-((S)-1-((3-cyclopropylquinolin-4-yl)methyl)-5-(2-(methylsulfonyl)acetyl)-2-oxo-7-(trifluoromethyl)-2,3,4,5-tetrahydro-1H-benzo[b][1,4]diazepin-3-yl)-2-(methylamino)propanamide]",49.3,34400
"CN[C@@H](C)C(=O)N[C@H]1CN(C(=O)CCS(C)(=O)=O)c2cc(C(F)(F)F)ccc2N(Cc2c(C3CC3)cnc3ccccc23)C1=O [Example 188, (S)-N-((S)-1-((3-cyclopropylquinolin-4-yl)methyl)-5-(3-(methylsulfonyl)propanoyl)-2-oxo-7-(trifluoromethyl)-2,3,4,5-tetrahydro-1H-benzo[b][1,4]diazepin-3-yl)-2-(methylamino)propanamide]",22.5,25400
"CN[C@@H](C)C(=O)N[C@H]1CN(C(C)=O)c2cc(C(F)(F)F)ccc2N(Cc2c(C3CC3)ccc3c(C#N)cccc23)C1=O [Example 189, (S)-N-((S)-5-acetyl-1-((5-cyano-2-cyclopropylnaphthalen-1-yl)methyl)-2-oxo-7-(trifluoromethyl)-2,3,4,5-tetrahydro-1H-benzo[b][1,4]diazepin-3-yl)-2-(methylamino)propanamide]",30.4,29300
"CN[C@@H](C)C(=O)N[C@@H]1C(=O)N(CC(=O)Nc2c(F)cccc2F)c2ccccc2N(C(C)=O)[C@H]1C [Example 190, (S)-N-((2S,3S)-1-acetyl-5-(2-(2,6-difluorophenylamino)-2-oxoethyl)-2-methyl-4-oxo-2,3,4,5-tetrahydro-1H-benzo[b][1,4]diazepin-3-yl)-2-(methylamino)propanamide hydrochloride]",85.3,> 54800
"CN[C@@H](C)C(=O)N[C@@H]1C(=O)N(CC(=O)Nc2ccccc2)c2ccccc2N(C(C)=O)[C@H]1C [Example 191, (S)-N-((2S,3S)-1-acetyl-2-methyl-4-oxo-5-(2-oxo-2-(phenylamino)ethyl)-2,3,4,5-tetrahydro-1H-benzo[b][1,4]diazepin-3-yl)-2-(methylamino)propanamide hydrochloride]",434,> 54800
